Data reported in patent US20200000087A1, “COMPOSITIONS FOR APPLICATION TO AERIAL PARTS OF PLANTS” (EXOSECT LIMITED, priority 2017, published 2020).
Like-named read-outs stand apart in the source and are kept apart here.

Experiments:
[1] = system: German cockroach, Blattella germanica; conditions: cited from earlier work
[2] = system: Zymoseptoria tritici (formerly Septoria tritici); experiment: Translaminar activity of Azoxystrobin formulated in Entostat against Z. tritici on wheat; assay type: in vivo; conditions: control of Zymoseptoria tritici; compared with conventional formulation
Description: • Test item type and Entostat SC contains in 300 g/L Entostat (Polyethylene contents: wax variant), with the wax component formulated with 81.8 g/L Azoxystrobin (8.18% w/w Azoxystrobin in SC) • Test item rate: The Entostat formulation was applied at a rate 2.68 L/ha delivering 219 g a.i/ha (which delivers Azoxystar's maximum label amount of active ingredient). • Reference item type Azoxystar—SC Strobilurin fungicide containing […] and contents: of Azoxystrobin (22.9 w/w Azoxystrobin in SC). • Reference item rate: Azoxystar was applied at the maximum recommended label rate (0.88 L/ha delivering 219 g a.i/ha) • Application interval: Once at wheat growth stage 12
200 square plastic pots (7×7×8 cm) were filled with J. Arthur Bower No. 1 seedling compost and drenched with tap water. Into each pot six spring wheat (T. aestivum cv. KWS Kielder) seeds were double sown. The pots were placed within four Secret Jardin 120 growth tents in a fully randomised block design of 40 blocks (5 pots per block). All plants were grown under a light, temperature and relative humidity (RH) regime of 16:8 light/dark, 20° C./17° C. and 80% RH. Pots were watered via capillary matting with tap water when required. No additional nutrients were supplied throughout the study. Fourteen days after sowing the six plants in each pot were reduced to three of uniform size. […]

[3] = Azoxystrobin retention on maize seed after Heubach mechanical stress (GC-ECD); assay type: physicochemical
Procedure: • Test item type and 1. Polyethylene Entostat (W3800) containing 499 mg/g contents: Azoxystrobin fungicide. • 2. Carnauba Entostat (W3738) containing 435 mg/g Azoxystrobin fungicide. • Test item rate: When using a commercial standard biological efficacy in maize is observed at […] seed. W3800 and W3738 were applied at […] of that commercial standard a.s. rate Table 1. • Application interval: Single application at the start of the study • Supplier: Entostat, Exosect, UK • Azoxystrobin, Albaugh, USA. • Storage: Pesticide cabinet in formulation laboratory, Exosect
The independent factors were, dry powder seed treatment formulation type (W3800 and W3738) and Azoxystrobin application rate (Low, Medium, and High). Residues of the active ingredient Azoxystrobin recovered from maize before and after mechanical stress were quantified. Each treatment will be replicated ten times. Work involving the Heubach Dustmeter was conducted according to know standard procedures.
Seeds were equilibrated in incubator 308 at 20° C.±2° C. and at 50%±10% relative humidity for at least 48 hours prior to testing.
Treatments were weighed into sterile 1 L Duran bottles along with 500 g of maize seeds. The treatments were homogenized for 30 seconds by gently agitating using the Stuart Rotator with MIX2040 attachment. 50 maize seeds were removed from each batch, weighed, and placed in a bioassay jar for pre mechanical stress quality control analysis. One 100 g sample were removed from each batch.
The 100 g sample was mechanically stressed in the Heubach Dustmeter (Heubach GMbh, Heubachstrasse7, 38685 Langelsheim), following the procedures outlined in TDRF311. Work involving the Heubach Dustmeter was conducted between 23° C. and 29° C. and 30% and 70% relative humidity in Bioassay Room 2. After the cycle, treated seeds were removed from the rotating drum. 50 maize seeds were removed from each batch, weighed, and placed in a bioassay jar for post mechanical stress quality control analysis.
Azoxystrobin present on the seed samples taken before and after Heubach mechanical stress were analysed using gas chromatography with electron capture detector (GC-ECD). From these values the percentage change of Azoxystrobin a.s. retained by the seeds mechanical stress was calculated.
Percentage Azoxystrobin retained on maize seed after mechanical stress was modelled using R (version 3.3.1). After testing for normality using a Shapiro-Wilk normality test, ANOVA was used to analyse the data linear model. Percentage Azoxystrobin retention was modelled as a function of the factors formulations type (W3800 and W3738), Azoxystrobin application rate (0.006259, 0.06259 and 0.6259 g a.s./kg seed) and interactions between the factors. Formulation W3800 at its lowest application (0.006259 g a.s./kg seed) was used as the control.

[4] = system: Triticum aestivum (Spring wheat) variety KWS Alderon; experiment: Translaminar (herbicidal) activity of Quizalofop-p-ethyl formulations sprayed on wheat, EPPO PP1/135 assessment; assay type: in vivo; conditions: control of volunteer wheat; compared with conventional formulation
[5] = Loading of acetamiprid dry powder seed treatment on seeds; assay type: physicochemical
[6] = cited from earlier work

CC1(C)[C@H](C(=O)O[C@H](C#N)c2cccc(Oc3ccccc3)c2)[C@@H]1/C=C(\Cl)C(F)(F)F (racemic) [lambda-cyhalothrin]
knock down period ([1]; Emulsifiable Concentrate (EC)): 10.33 min | knock down period ([1]; microencapsulated formulation): 17.16 min

CO/C=C(/C(=O)OC)c1ccccc1Oc1cc(Oc2ccccc2C#N)ncn1 [Azoxystrobin, Methyl (2E)-2-(2-{[6-(2-cyanophenoxy)pyrimidin-4-yl]oxy}phenyl)-3-methoxyacrylate]
effectiveness of Entostat matrix encapsulated formulation as foliar spray [2]: as effective as a conventional Suspension Concentrate (SC) formulation | less Azoxystrobin retained compared to the lowest application rate ([3]; high application rate (0.6259 g a.s./Kg)): 21% | Azoxystrobin retained of original application ([3]; high application rate (0.6259 g a.s./Kg), across formulations): 41% | Azoxystrobin retained of original application ([3]; lowest application rate (0.006259 g a.s./Kg), across formulations W3800 and W3738): 62% | less Azoxystrobin retained compared to the lowest application rate ([3]; medium application rate (0.06259 g a.s./Kg)): 7% | Azoxystrobin retained of original application ([3]; medium application rate (0.06259 g a.s./Kg), across formulations): 55% | dose of Azoxystrobin which remains on the surface of the maize ([3]; medium dose, after mechanical stress): 0.0346 mg·s/kg

CCOC(=O)[C@@H](C)Oc1ccc(Oc2cnc3cc(Cl)ccc3n2)cc1 [Quizalofop-p-ethyl, ethyl (2R)-2-[4-(6-chloroquinoxalin-2-yl)oxyphenoxy]propanoate]
effectiveness of Entostat matrix encapsulated formulation as foliar spray [4]: as effective as a conventional Suspension Concentrate (SC) formulation

C/C(=N\C#N)N(C)Cc1ccc(Cl)nc1 [acetamiprid]
relative percentage loading on seeds ([5]; after 10 fold decrease in powder application): 80% | relative percentage loading on seeds ([5]; before 10 fold decrease in powder application): 52%

CCOP(=S)(OCC)Oc1nc(Cl)c(Cl)cc1Cl [chlorpyrifos]
time to release 50% of the insecticide ([6]; encapsulated formulation, sodium alginate and starch microspheres): 5 days | time to release 50% of chlorpyrifos ([6]; free chlorpyrifos): 1 days
